Source: US8853227B2, “Methotrexate adjuvants to reduce toxicity and methods for using the same” (Tosk, Incorporated, priority 2008, dated 2014)
“Also recorded” adds a separate entry of the source.

Assays:
AS283 cells = assay: Cell Culture Study II (MTX cytotoxicity, CellTiter-Glo); format: cell-based, human; details: 72 hours
Description: In this study, AS283 cells were grown in RPMI-1640 supplemented with L-glutamine dipeptide, sodium pyruvate, HEPES, and 10% FBS. AS283 cells were used to seed three 96-well plates with 10,000 cells/well in a total volume of 50 μL. Medium alone wells were seeded 100 μL medium. Plates were incubated overnight. The following day, 25 μL of the TK-112690 and MTX stock solutions were added to the appropriate wells. TK-112690 was added first, followed by MTX in all wells. 25 μL of vehicle was added to TK-112690 alone wells. 25 μL of vehicle and 25 μL medium were added to vehicle control wells, and 50 μL medium was added to cell control wells. Cell viability was measured using CellTiter-Glo and DOX (10 μM) was used as a reference standard. The plates were incubated at 37° C., 5% CO2 for 72 hours then removed from the incubator and placed on the bench at room temperature for 30 min. The plates were not stacked or shaken. […] Luminescence was recorded on TriLux. […]
AS283 cells were grown in RPMI-1640 supplemented with L-glutamine dipeptide, sodium pyruvate, HEPES, and 10% FBS. […] Cell viability was measured using CellTiter-Glo and DOX (10 μM) was used as a reference standard.
The plates were incubated at 37° C., 5% CO2 for 72 hours then removed from the incubator and placed on the bench at room temperature for 30 min. […] Luminescence was recorded on TriLux.

Drosophila melanogaster = assay: Fly Study I (protection from MTX-induced lethality); format: in vivo; details: for Flies Alive (Number): Fly Study I method, test compound + MTX (MTX Alone: no adjuvant), Table 3
Description: In this study, Drosophila melanogaster eggs (50 eggs per vial) were treated with either 0.005 mg TK-112690+0.4 mg MTX (Group 1), 0.01 mg TK-112690+0.4 mg MTX (Group 2), 0.04 mg TK-112690+0.4 mg MTX (Group 3), 0.1 mg TK-112690+0.4 mg MTX (Group 4), 0.4 mg MTX alone (Group 5) or saline blank (Group 6). Two vials of eggs for each dose group were evaluated for viability (viable flies plus pupae).
The efficacy of cancer chemotherapy can be improved if agents are available to reduce the adverse events associated with treatment with cytotoxic agents. To this end, Drosophila melanogaster (commonly know as the fruit fly) is an ideal organism to screen chemical compounds for such side-effect-reducing agents. This study is aimed at finding a dose of a 2,2′-anhydropyrimidine test article that protects against MTX-induced lethality in insects.
Increasing amounts of a 2,2′-anhydropyrimidine test article (typically 0.03 to 0.1 mg) are mixed in an aqueous solution with 0.3 (or 0.4) mg MTX. Four milliliters (mL) of a 2,2′-anhydropyrimidine test article+MTX solutions are added to an appropriate amount of instant fly medium. Fruit fly eggs are added to a 2,2′-anhydropyrimidine test article+MTX treated medium and incubated for up to 31 days. After the 31 day incubation, each assay is scored by the number of mature fly and pupae per vial.
The assays are set up in clear sterile polystyrene narrow diameter vials from Applied Scientific (Hampton, N.H.). Vials are stored in trays and incubated in a darkened 25° C. incubator.
Reagents and materials used are: 50 mg/mL MTX in H2O (pH 8), 20 mg/mL of the 2,2′-anhydropyrimidine test article in H2O, water, sterile polystyrene narrow diameter vials from Applied Scientific, Instant Drosophila Food Medium, Oregon-R Drosophila melanogaster, 25° C. incubator, and 15 mL polystyrene conical tubes
Each assay is performed in a separate fly vial. Increasing amounts of a 2,2′-anhydropyrimidine (0.005 to 1.0 mg) are tested for MTX side-effect-reduction on fly eggs. Amounts of the 2,2′-anhydropyrimidine test article are drawn from a 20 mg/mL stock solution dissolved in water. Nine mL of the 2,2′-anhydropyrimidine+0.3 (or 0.4) mg MTX solutions are pre-mixed with water in a 15 mL conical tube. Duplicate assays receive 4 mL of the 2,2′-anhydropyrimidine test article+0.3 (or 0.4) mg MTX solutions. Pre-measured amounts of instant drosophila medium are added to each assay to achieve optimal hydration level. Controls are (1) 4 mL water alone and (2) 0.3 (or 0.4) mg MTX alone. Precisely 50 fly eggs aged for ˜18 hours are added to each assay. Assays are capped with a fitted plug and incubated for 30 days in a darkened 25° C. incubator. Assays are scored by the number of dead pupae or adult flies per vial.

Compound	cytotoxicity to AS283 cancer cells (AS283 cells; MTX 0.01-100 μM)	effect of MTX on lethality in the flies (Drosophila melanogaster; 0.4 mg MTX alone vs saline, p<0.01)	Flies Alive (Number) (Drosophila melanogaster)	effect of TK-112690 on MTX cytotoxicity (cell viability) (AS283 cells; TK-112690 1, 10, 100 μM + MTX 0.01-100 μM)	protection from MTX lethality in flies (viable flies plus pupae) (Drosophila melanogaster; 0.005 to 0.1 mg TK-112690 + 0.4 mg MTX, p<0.01 vs MTX alone or saline)
CN(Cc1cnc2nc(N)nc(N)c2n1)c1ccc(C(=O)N[C@@H](CCC(=O)O)C(=O)O)cc1 [MTX, N-[4-[[(2,4-diamino-6-pteridinyl)methyl]methylamino]benzoyl]-L-glutamic acid, reference compound]	cytotoxic	highly significant	0	–	–
Cc1cn2c(nc1=O)O[C@H]1[C@H](O)[C@@H](CO)O[C@H]12 [TK-112690, 2,2′-anhydro-5-methyluridine]	–	–	8	did not diminish the cytotoxicity of MTX; also recorded: no statistical difference	highly significant
